Source: patent US8952034B2, “Fused heterocyclic compounds as ion channel modulators” (Gilead Sciences, Inc., priority 2009, dated 2015)

target: wild-type human cardiac sodium channel, hNav1.5 (Homo sapiens, UniProt Q14524); assay: Late INa screening assay (automated whole cell patch clamp, PatchXpress); assay type: cell-based; details: compound at 1 μM; HEK293 cells expressing hNav1.5; late INa generated with 10 μM Tefluthrin (or 50 nM ATX II); read-out: LateINa_1 uM (percent block of late INa)
Sequence (Q14524 whole entry): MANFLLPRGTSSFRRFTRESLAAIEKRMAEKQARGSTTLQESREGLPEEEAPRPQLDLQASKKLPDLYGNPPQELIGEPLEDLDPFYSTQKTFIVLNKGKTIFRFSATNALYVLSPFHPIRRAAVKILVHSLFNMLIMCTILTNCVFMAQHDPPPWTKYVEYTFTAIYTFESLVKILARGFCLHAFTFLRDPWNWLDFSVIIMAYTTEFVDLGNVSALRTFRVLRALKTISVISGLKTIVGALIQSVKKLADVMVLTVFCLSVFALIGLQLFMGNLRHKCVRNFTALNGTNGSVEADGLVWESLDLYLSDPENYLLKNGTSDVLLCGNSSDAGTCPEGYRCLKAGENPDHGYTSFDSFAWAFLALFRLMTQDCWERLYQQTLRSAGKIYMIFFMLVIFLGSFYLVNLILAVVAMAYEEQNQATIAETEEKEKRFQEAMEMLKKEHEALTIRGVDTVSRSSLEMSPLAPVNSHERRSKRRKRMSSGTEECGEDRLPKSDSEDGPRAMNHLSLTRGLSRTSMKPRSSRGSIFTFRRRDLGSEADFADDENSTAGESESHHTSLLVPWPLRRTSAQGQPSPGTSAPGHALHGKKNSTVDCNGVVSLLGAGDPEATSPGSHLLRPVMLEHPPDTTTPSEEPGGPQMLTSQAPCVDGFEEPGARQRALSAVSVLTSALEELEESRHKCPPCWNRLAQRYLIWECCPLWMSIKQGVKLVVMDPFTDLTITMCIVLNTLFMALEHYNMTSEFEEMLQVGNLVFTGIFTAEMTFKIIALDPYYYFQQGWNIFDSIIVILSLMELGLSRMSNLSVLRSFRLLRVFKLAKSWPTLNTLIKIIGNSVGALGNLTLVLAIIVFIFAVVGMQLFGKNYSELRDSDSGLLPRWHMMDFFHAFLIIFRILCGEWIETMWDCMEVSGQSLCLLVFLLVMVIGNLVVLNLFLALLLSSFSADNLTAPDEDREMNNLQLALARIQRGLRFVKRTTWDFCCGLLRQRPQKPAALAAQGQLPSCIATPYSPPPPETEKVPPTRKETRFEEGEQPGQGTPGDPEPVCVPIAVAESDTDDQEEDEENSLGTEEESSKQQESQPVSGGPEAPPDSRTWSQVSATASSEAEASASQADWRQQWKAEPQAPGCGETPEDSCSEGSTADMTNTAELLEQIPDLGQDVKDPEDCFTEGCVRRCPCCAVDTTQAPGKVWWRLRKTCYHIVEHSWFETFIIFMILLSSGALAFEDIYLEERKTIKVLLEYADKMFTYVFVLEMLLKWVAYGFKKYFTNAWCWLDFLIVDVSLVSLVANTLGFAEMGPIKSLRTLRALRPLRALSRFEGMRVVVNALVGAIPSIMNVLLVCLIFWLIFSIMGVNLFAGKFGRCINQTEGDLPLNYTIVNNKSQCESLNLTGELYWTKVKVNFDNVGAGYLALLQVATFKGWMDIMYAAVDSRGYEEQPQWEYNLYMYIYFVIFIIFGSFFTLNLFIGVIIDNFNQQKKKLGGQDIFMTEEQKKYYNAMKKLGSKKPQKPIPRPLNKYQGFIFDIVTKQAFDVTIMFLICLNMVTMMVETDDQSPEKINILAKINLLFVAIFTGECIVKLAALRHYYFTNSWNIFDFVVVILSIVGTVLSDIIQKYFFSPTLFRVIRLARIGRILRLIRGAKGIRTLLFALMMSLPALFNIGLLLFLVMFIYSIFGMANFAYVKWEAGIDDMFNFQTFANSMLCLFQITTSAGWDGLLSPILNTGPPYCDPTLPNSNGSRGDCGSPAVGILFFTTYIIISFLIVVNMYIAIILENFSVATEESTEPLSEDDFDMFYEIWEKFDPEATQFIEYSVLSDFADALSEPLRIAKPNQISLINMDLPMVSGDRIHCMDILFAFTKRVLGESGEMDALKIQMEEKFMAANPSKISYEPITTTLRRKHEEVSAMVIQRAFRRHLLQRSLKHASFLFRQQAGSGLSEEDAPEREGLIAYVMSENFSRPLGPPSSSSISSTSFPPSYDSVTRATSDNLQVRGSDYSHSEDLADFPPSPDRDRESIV
Procedure: The late sodium current (Late INa) and peak sodium current (Peak INa) assays are performed on an automated electrophysiology platform, PatchXpress 7000A (MDS Analytical Technologies, Sunnyvale, Calif.), which uses the whole cell patch clamp technique to measure currents through the cell membrane of up to 16 cells at a time. The assay uses an HEK293 (human embryonic kidney) cell line heterologously expressing the wild-type human cardiac sodium channel, hNav1.5, purchased from Millipore (Billerica, Mass.). No beta subunits were coexpressed with the Na channel alpha subunit. Cells are maintained with standard tissue culture procedures and stable channel expression is maintained with 400 μg/ml Geneticin in the culture medium. […] Experiments are carried out at 24-27° C.
For both the Late INa and Peak INa assays, series resistance compensation is set to 50% and whole-cell compensation is performed automatically. […] Currents through open sodium channels are automatically recorded and stored in the DataXpress2 database (MDS Analytical Technologies, Sunnyvale, Calif.). Analysis is performed using DataXpress2 analysis software and data are compiled in Excel.
Compound stocks are routinely made in glass vials to 10 mM in dimethyl sulfoxide (DMSO). In some cases, when compounds are not soluble in DMSO, they are made in 100% ethanol. Stocks are sonicated as necessary. The extracellular solution for screening Late INa is composed of: 140 mM NaCl, 4 mM KCl, 1.8 mM CaCl2, 0.75 mM MgCl2, and 5 mM HEPES with pH adjusted to 7.4 using NaOH. The extracellular solution for screening Peak INa is composed of: 20 mM NaCl, 120 mM N-methyl-D glucamine, 4 mM KCl, 1.8 mM CaCl2, 0.75 mM MgCl2, and 5 mM HEPES with pH adjusted to 7.4 using HCl. The intracellular solution used to perfuse the inside of the cells for both the Late INa and Peak INa assays contains: 120 mM CsF, 20 mM CsCl, 5 mM EGTA, 5 mM HEPES and pH adjusted to 7.4 with CsOH. […] The 0Na extracellular solution used at the end of each experiment for the Late INa and Peak INa assays to measure baseline current contains: 140 mM N-methyl-D-glucamine; 4 mM KCl; 1.8 mM CaCl2; 0.75 mM MgCl2; 5 mM HEPES and pH was adjusted to 7.4 with HCl.
For the Late INa assay, sodium channels are activated every 10 seconds (0.1 Hz) by depolarizing the cell membrane to −20 mV for 250 milliseconds (ms) from a holding potential of −120 mV. In response to a −20 mV voltage step, typical Nav1.5 sodium currents activate rapidly to a peak negative current and then inactivate nearly completely within […].
All compounds are tested to determine their activity in blocking the late sodium current. Late INa current is generated by adding 10 μM Tefluthrin (pyrethroid) to the extracellular solution while recording Na currents For some experiments, 50 nM ATX II (sea anemone toxin), another late INa activator, was used to generate the late component. […] After establishing the whole cell recording configuration, late INa activators are added to each well 4 times over a 16-17 minute period so that the late component of the Na current reaches a stable value. […] Measurements are made at the end of exposure to the third compound addition and values are normalized to the current level when all Na^+ is removed from the extracellular solution after two additions of 0Na-ECF. Results are reported as percent block of late INa

Row | Compound | inhibition at 1 µM [%]
1 | NC(=O)c1nnc2ccc(-c3ccc(OC(F)(F)F)cc3)cn12 [BHN-265, 6-[4-(trifluoromethoxy)phenyl][1,2,4]triazolo[4,3-a]pyridine-3-carboxamide] | 15.3
2 | FC(F)(F)Oc1ccc(-c2ccc3nnc(C(F)(F)OCCC(c4ccccc4)c4ccccc4)n3c2)cc1 [BHN-303, 3-[(3,3-diphenylpropoxy)(difluoro)methyl]-6-[4-(trifluoromethoxy)phenyl][1,2,4]triazolo[4,3-a]pyridine] | 51
3 | CC(C)c1nnc2ccc(-c3cc(F)c(Oc4ccccc4)c(F)c3)nn12 [BHN-201, 6-(3,5-difluoro-4-phenoxyphenyl)-3-(propan-2-yl)[1,2,4]triazolo[4,3-b]pyridazine] | 29.7
4 | FC(F)(F)c1nnc2ccc(-c3ccc(Nc4ccccc4)cc3)cn12 [BHN-114, N-phenyl-4-[3-(trifluoromethyl)[1,2,4]triazolo[4,3-a]pyridin-6-yl]aniline] | 37.4
5 | CCOc1cc(OC(F)(F)F)ccc1-c1ccc2nnc(C(F)(F)F)n2c1 [BHN-222, 6-[2-ethoxy-4-(trifluoromethoxy)phenyl]-3-(trifluoromethyl)[1,2,4]triazolo[4,3-a]pyridine] | 65.3
6 | FC(F)(F)Oc1ccc(-c2ccc3nnc(C(F)(F)OCc4coc(-c5ccc(C(F)(F)F)cc5)n4)n3c2)cc1 [BHN-288, 3-[difluoro({2-[4-(trifluoromethyl)phenyl]-1,3-oxazol-4-yl}methoxy)methyl]-6-[4-(trifluoromethoxy)phenyl][1,2,4]triazolo[4,3-a]pyridine] | 39.2
7 | OCc1nnc2ccc(-c3ccc(OC(F)(F)F)cc3)cn12 [BHN-130, {6-[4-(trifluoromethoxy)phenyl][1,2,4]triazolo[4,3-a]pyridin-3-yl}methanol] | 21.9
8 | FC(F)(F)c1nnc2ccc(-c3ccc(OC(F)(F)c4cccnc4)cc3)cn12 [BHN-271, 6-{4-[difluoro(pyridin-3-yl)methoxy]phenyl}-3-(trifluoromethyl)[1,2,4]triazolo[4,3-a]pyridine] | 19.9
9 | FC(F)(F)Oc1ccc(-c2ccc3nnc(C(F)(F)OCc4cccc(-n5cnc(C6CC6)c5)c4)n3c2)cc1 [BHN-317, 3-[{[3-(4-cyclopropyl-1H-imidazol-1-yl)benzyl]oxy}(difluoro)methyl]-6-[4-(trifluoromethoxy)phenyl][1,2,4]triazolo[4,3-a]pyridine] | 46.4
10 | Nc1cc(-c2ccc3nnc(C(F)(F)F)n3c2)ccc1OC(F)(F)F [BHN-134, 2-(trifluoromethoxy)-5-[3-(trifluoromethyl)[1,2,4]triazolo[4,3-a]pyridin-6-yl]aniline] | 27.8
11 | FC(F)(F)c1ncc(-c2ccc3nnc(C(F)(F)F)n3c2)cn1 [BHN-122, 3-(trifluoromethyl)-6-[2-(trifluoromethyl)pyrimidin-5-yl][1,2,4]triazolo[4,3-a]pyridine] | 31.8
12 | COCCOc1cc(OC(F)(F)F)ccc1-c1ccc2nnc(C(F)(F)F)n2c1 [BHN-178, 6-[2-(2-methoxyethoxy)-4-(trifluoromethoxy)phenyl]-3-(trifluoromethyl)[1,2,4]triazolo[4,3-a]pyridine] | 28.5
13 | Cc1cc(COC(F)(F)c2nnc3ccc(-c4ccc(OC(F)(F)F)cc4)cn23)c2ccccc2n1 [BHN-289, 4-[(difluoro{6-[4-(trifluoromethoxy)phenyl][1,2,4]triazolo[4,3-a]pyridin-3-yl}methoxy)methyl]-2-methylquinoline] | 47.9
14 | CC#CCOC(F)(F)c1nnc2ccc(-c3ccc(OC(F)(F)F)cc3)cn12 [BHN-293, 3-[(but-2-yn-1-yloxy)(difluoro)methyl]-6-[4-(trifluoromethoxy)phenyl][1,2,4]triazolo[4,3-a]pyridine] | 80.6
15 | Fc1cc(-c2ccc3nnc(C(F)(F)F)n3n2)ccc1OC(F)(F)F [BHN-209, 6-[3-fluoro-4-(trifluoromethoxy)phenyl]-3-(trifluoromethyl)[1,2,4]triazolo[4,3-b]pyridazine] | 61
16 | FC(F)(F)Oc1ccc(-c2ccc3nnc(C(F)(F)OCc4ccccc4-c4ccc(C5CC5)nc4)n3c2)cc1 [BHN-325, 3-[{[2-(6-cyclopropylpyridin-3-yl)benzyl]oxy}(difluoro)methyl]-6-[4-(trifluoromethoxy)phenyl][1,2,4]triazolo[4,3-a]pyridine] | 68.3
17 | FC(F)(F)Oc1ccc(-c2ccc3nnc(C(F)(F)OCc4ccccc4)n3c2)cc1 [BHN-148, 3-[(benzyloxy)(difluoro)methyl]-6-[4-(trifluoromethoxy)phenyl][1,2,4]triazolo[4,3-a]pyridine] | 71.7
18 | CN(c1ccccc1)c1ccc(-c2ccc3nnc(C(F)(F)F)n3c2)cc1 [BHN-278, N-methyl-N-phenyl-4-[3-(trifluoromethyl)[1,2,4]triazolo[4,3-a]pyridin-6-yl]aniline] | 54.2
19 | COCC(F)(F)c1nnc2ccc(-c3ccc(OC(F)(F)F)c(F)c3)cn12 [BHN-232, 3-(1,1-difluoro-2-methoxyethyl)-6-[3-fluoro-4-(trifluoromethoxy)phenyl][1,2,4]triazolo[4,3-a]pyridine] | 45.3
20 | C/C(=C\C#N)c1ccc(-c2ccc3nnc(C(F)(F)F)n3c2)cc1 [BHN-169, (2E)-3-{4-[3-(trifluoromethyl)[1,2,4]triazolo[4,3-a]pyridin-6-yl]phenyl}but-2-enenitrile] | 30.5
21 | Cn1c(COC(F)(F)c2nnc3ccc(-c4ccc(OC(F)(F)F)cc4)cn23)nc2ccccc21 [BHN-296, 3-{difluoro[(1-methyl-1H-benzimidazol-2-yl)methoxy]methyl}-6-[4-(trifluoromethoxy)phenyl][1,2,4]triazolo[4,3-a]pyridine] | 40.1
22 | FC(F)(F)COc1ccc(-c2ccc3nnc(C(F)(F)F)n3n2)cn1 [BHN-221, 6-[6-(2,2,2-trifluoroethoxy)pyridin-3-yl]-3-(trifluoromethyl)[1,2,4]triazolo[4,3-b]pyridazine] | 55
23 | COCC(F)(F)c1nnc2ccc(-c3ccc(Oc4ccc(F)cc4)cc3)cn12 [BHN-138, 3-(1,1-difluoro-2-methoxyethyl)-6-[4-(4-fluorophenoxy)phenyl][1,2,4]triazolo[4,3-a]pyridine] | 42.8
24 | FC(F)(F)Oc1ccc(-c2ccc3nnc(C(F)(F)OCc4cccnc4)n3c2)cc1 [BHN-204, 3-[difluoro(pyridin-3-ylmethoxy)methyl]-6-[4-(trifluoromethoxy)phenyl][1,2,4]triazolo[4,3-a]pyridine] | 43.9

same assay, conditions: compound at 10 μM; HEK293 cells expressing hNav1.5; late INa generated with 10 μM Tefluthrin (or 50 nM ATX II); read-out: LateINa_10 uM (percent block of late INa)

Row | Compound | inhibition at 10 µM [%]
25 | COc1ccc(-c2ccc3nnc(-c4ccc(C#N)cc4)n3n2)cc1 [BHN-44, 4-[6-(4-methoxyphenyl)[1,2,4]triazolo[4,3-b]pyridazin-3-yl]benzonitrile] | 15
26 | FC(F)(F)Oc1ccc(-c2ccc3c(-c4ccccc4)nc(C(F)(F)F)n3c2)cc1 [BHN-34, 1-phenyl-6-[4-(trifluoromethoxy)phenyl]-3-(trifluoromethyl)imidazo[1,5-a]pyridine] | 33.4
27 | Cn1cc(-c2nnc3ccc(-c4ccc(OC(F)(F)F)cc4)cn23)cn1 [BHN-82, 3-(1-methyl-1H-pyrazol-4-yl)-6-[4-(trifluoromethoxy)phenyl][1,2,4]triazolo[4,3-a]pyridine] | 38.9
28 | Cc1cc(OC(F)(F)F)ccc1-c1cc(N)c2nnc(C)n2c1 [BHN-70, 3-methyl-6-[2-methyl-4-(trifluoromethoxy)phenyl][1,2,4]triazolo[4,3-a]pyridin-8-amine] | 40.4
29 | Cc1cc(-c2ccc(Oc3ccccc3)cc2)cn2ncnc12 [BHN-349, 8-methyl-6-(4-phenoxyphenyl)[1,2,4]triazolo[1,5-a]pyridine] | 65.1
